ChEMBL document CHEMBL6182905, “Fluorinated sulfonamide-flavonoid derivatives as novel Keap1-Nrf2 inhibitors: Potent induction of cytoprotective gene HO-1 in vivo” (Eur J Med Chem, 2025)
Calls of active or inactive are those of the source. The calls are words filed in the database; no cut-off is given here.

Legend:
[1] = AUC (0 to t) last in Sprague-Dawley rat at 10 mg/kg, po; assay type: ADME, organism-based; conditions: in vivo
[2] = Toxicity in C57BL/6J mouse assessed as histopathological change in cardiovascular tissue at 25 mg/kg, ip by H and E staining based analysis; assay type: organism-based; conditions: in vivo
[3] = system: Mus musculus; assay: Hepatoprotective activity in APAP-induced Nrf2 knockout male C57BL/6 mouse model of acute liver injury assessed as effect on ALT level in liver at 25 mg/kg, ip preadministered with compound followed by APAP induction and measured after 12 hrs; assay type: functional, organism-based
[4] = Toxicity in C57BL/6J mouse assessed as histopathological change in renal tissue at 25 mg/kg, ip by H and E staining based analysis; assay type: organism-based; conditions: in vivo
[5] = system: Mus musculus; assay: In vivo induction of Nrf2 nuclear translocation in APAP-induced male C57BL/6 mouse model of acute liver injury assessed as increase in nuclear Nrf2 level at 12.5 to 25 mg/kg, ip measured after 12 hrs by Western blot analysis; assay type: functional, organism-based; conditions: dose 12.5-25 mg/kg
[6] = system: Mus musculus; assay: In vivo inhibition of Keap1/Nrf2 protein-protein interaction in APAP-induced male C57BL/6 mouse model of acute liver injury administered intraperitoneally and measured after 12 hrs by co-immunoprecipitation analysis; assay type: functional, organism-based; conditions: dose 12.5-25 mg/kg, route ip
[7] = Elimination half life in Sprague-Dawley rat at 1 mg/kg, iv; assay type: ADME, organism-based; conditions: in vivo, read-out: beta t1/2 (converted)
[8] = Toxicity in C57BL/6J mouse assessed as histopathological change in hepatic tissue at 25 mg/kg, ip by H and E staining based analysis; assay type: organism-based; conditions: in vivo
[9] = system: Mus musculus; assay: Anti-inflammatory activity against APAP-induced male C57BL/6 mouse model of acute liver injury assessed as upregulation of GCLM mRNA level in liver administered intraperitoneally and measured after 12 hrs by RT-qPCR analysis; assay type: functional, organism-based; conditions: dose 12.5-25 mg/kg, route ip
[10] = biological target: T1, Nuclear factor erythroid 2-related factor 2 (Mus musculus) (UniProt Q60795); assay: Activation of Nrf2 in LPS-stimulated mouse AML12 cells assessed as upregulation of Akr1c1 mRNA expression incubated for 16 hrs by RT-qPCR analysis; assay type: cell-based; conditions: filed as activator, dose 0.5-10 µM
T1 sequence (whole entry): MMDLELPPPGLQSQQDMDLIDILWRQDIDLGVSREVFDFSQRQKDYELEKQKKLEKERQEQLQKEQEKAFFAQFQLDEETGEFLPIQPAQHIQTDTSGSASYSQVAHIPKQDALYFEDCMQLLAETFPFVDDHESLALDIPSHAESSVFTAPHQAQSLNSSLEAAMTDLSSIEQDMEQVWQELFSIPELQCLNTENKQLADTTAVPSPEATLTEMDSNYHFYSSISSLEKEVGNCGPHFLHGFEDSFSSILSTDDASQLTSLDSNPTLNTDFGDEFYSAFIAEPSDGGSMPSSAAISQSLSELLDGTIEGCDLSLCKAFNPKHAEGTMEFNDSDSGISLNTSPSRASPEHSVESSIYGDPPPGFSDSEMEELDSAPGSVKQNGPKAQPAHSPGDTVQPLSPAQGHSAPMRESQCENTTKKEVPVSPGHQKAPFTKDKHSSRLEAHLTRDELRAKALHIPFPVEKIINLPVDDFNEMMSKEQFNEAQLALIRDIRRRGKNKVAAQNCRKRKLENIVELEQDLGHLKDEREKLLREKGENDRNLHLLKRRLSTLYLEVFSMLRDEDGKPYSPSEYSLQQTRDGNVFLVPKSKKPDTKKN

[11] = system: Mus musculus; assay: Anti-inflammatory activity in APAP-induced C57BL/6 mouse model of acute liver injury assessed as reduction in TNFalpha mRNA level in liver at 12.5 to 25 mg/kg, ip measured after 12 hrs by ELISA; assay type: functional, organism-based; conditions: dose 12.5-25 mg/kg
[12] = Elimination half life in Sprague-Dawley rat at 10 mg/kg, po; assay type: ADME, organism-based; conditions: in vivo, read-out: beta t1/2 (converted)
[13] = biological target: T1, Nuclear factor erythroid 2-related factor 2 (Mus musculus); assay: Activation of Nrf2 in LPS-stimulated mouse AML12 cells assessed as upregulation of GCLM mRNA expression by measuring fold change at 10 uM incubated for 16 hrs relative to sulforaphane; assay type: cell-based; conditions: filed as activator
[14] = system: Mus musculus; assay: Hepatoprotective activity in APAP-induced male C57BL/6 mouse model of acute liver injury assessed as reduction in pathological damage in liver at 12.5 to 25 mg/kg, ip measured after 12 hrs by H and E staining based analysis; assay type: functional, organism-based; conditions: dose 12.5-25 mg/kg
[15] = Cmax in Sprague-Dawley rat at 1 mg/kg, iv; assay type: ADME, organism-based; conditions: in vivo
[16] = biological target: T1, Nuclear factor erythroid 2-related factor 2 (Mus musculus); assay: Activation of Nrf2 in LPS-stimulated mouse AML12 cells assessed as upregulation of HO-1 mRNA expression by measuring fold change at 10 uM incubated for 16 hrs relative to sulforaphane; assay type: cell-based; conditions: filed as activator
[17] = system: Mus musculus; assay: Anti-inflammatory activity in APAP-induced C57BL/6 mouse model of acute liver injury assessed as reduction in IL-6 level in serum at 12.5 to 25 mg/kg, ip measured after 12 hrs by ELISA; assay type: functional, organism-based; conditions: dose 12.5-25 mg/kg
[18] = Toxicity in C57BL/6J mouse assessed as histopathological change in splenic tissue at 25 mg/kg, ip by H and E staining based analysis; assay type: organism-based; conditions: in vivo
[19] = Tmax in Sprague-Dawley rat at 1 mg/kg, iv; assay type: ADME, organism-based; conditions: in vivo
[20] = system: Mus musculus; assay: Hepatoprotective activity in APAP-induced male C57BL/6 mouse model of acute liver injury assessed as reduction in cell apoptosis in liver at 12.5 to 25 mg/kg, ip measured after 12 hrs by TUNEL assay; assay type: functional, organism-based; conditions: dose 12.5-25 mg/kg
[21] = system: Mus musculus; assay: Anti-inflammatory activity in APAP-induced C57BL/6 mouse model of acute liver injury assessed as reduction in neutrophil invasion in liver at 12.5 to 25 mg/kg, ip measured after 12 hrs by immunohistochemical staining based analysis; assay type: functional, organism-based; conditions: dose 12.5-25 mg/kg
[22] = Drug concentration in plasma of APAP-induced acute liver injury male C57BL/6 mouse model at 12.5 mg/kg, ip pre-administered with compound for 1 hr followed by APAP induction and measured after 12 hrs by Mass spectrometric analysis; assay type: ADME, organism-based
[23] = biological target: T1, Nuclear factor erythroid 2-related factor 2 (Mus musculus); assay: Activation of Nrf2 in LPS-stimulated mouse AML12 cells assessed as upregulation of Nrf2 protein level incubated for 16 hrs by Western blot analysis; assay type: cell-based; conditions: filed as activator, dose 0.5-10 µM
[24] = Absolute oral bioavailability in Sprague-Dawley rat at 10 mg/kg; assay type: ADME, organism-based; conditions: in vivo
[25] = system: Mus musculus; assay: Hepatoprotective activity in APAP-induced male C57BL/6 mouse model of acute liver injury assessed as attenuation of nitric oxide (NO) level in liver at 12.5 to 25 mg/kg, ip measured after 12 hrs; assay type: functional, organism-based; conditions: dose 12.5-25 mg/kg
[26] = system: Mus musculus; assay: Hepatoprotective activity in APAP-induced Nrf2 knockout male C57BL/6 mouse model of acute liver injury assessed as reduction in liver damage at 25 mg/kg, ip preadministered with compound followed by APAP induction and measured after 12 hrs by H and E staining based analysis; assay type: functional, organism-based
[27] = system: Mus musculus; assay: Anti-inflammatory activity in APAP-induced Nrf2 knockout male C57BL/6 mouse model of acute liver injury assessed as increase in MPO positive cells in liver at 25 mg/kg, ip preadministered with compound followed by APAP induction and measured after 12 hrs by staining based analysis; assay type: functional, organism-based
[28] = Cmax in Sprague-Dawley rat at 10 mg/kg, po; assay type: ADME, organism-based; conditions: in vivo

For `COc1ccc(-c2cc(=O)c3ccc(NS(=O)(=O)c4ccc(F)cc4)cc3o2)cc1`, the AUC(0-t) [1] was 7690 ng·h/mL, the Activity [2] was “Non-toxic” and the Activity [3] was “No effect”. For the same compound, the Activity [4] was “Non-toxic”, the Activity [5] was “Active” and the inhibition [6] was “Dose-dependent-effect”. For the same compound, the half-life [7] was 5.45 h, the Activity [8] was “Non-toxic” and the Activity [9] was “Dose-dependent-effect”. The Activity [10] was “Dose-dependent-effect”, the Activity [11] was “Active” and the half-life [12] was 3.47 h. The fold change (FC) [13] was 2.3, the Activity [14] was “Active” and the Cmax [15] was 1050 ng/mL. For the same compound, the fold change (FC) [16] was 3.4, the Activity [17] was “Active” and the Activity [18] was “Non-toxic”. The Tmax [19] was 0.17 h, the Activity [20] was “Active” and the Activity [21] was “Active”. For the same compound, the concentration at 13 h [22] was 50 ng/mL, the Activity [23] was “Dose-dependent-effect” and the bioavailability [24] was 19.9%. For the same compound, the Activity [25] was “Active”, the Activity [26] was “inactive” and the Activity [27] was “inactive”. It also gave a Cmax [28] of 1300 ng/mL.
